Patent US12528826B2, “[1,4]oxazepino[2,3-c]quinolinone derivatives as BCL6 inhibitors” (Cancer Research Technology Limited, priority 2019, dated 2026)

What follows are compounds tested against T1, Trx-6×His-BCL6 (human BCL6 BTB domain covering amino-acid sequence 5-129) (Homo sapiens, UniProt P41182) (assay: HTRF assay (BCL6 / BCOR peptide)). Conditions: 1 nM Trx-6×His-BCL6, 300 nM BCOR-AF633 peptide, 2 hours incubation at room temperature; read-out: HTRF avg pIC50 (converted).
T1 construct: made in house
Format: binding
Experimental: After 2 hours incubation at room temperature the plate was read on a Pherastar FSX (BMG Labtech) plate reader equipped with 337 nm laser excitation filter, a first emission filter at 620 nm and a second emission filter at 665 nm. The % inhibition at each concentration was calculated by normalising FRET ratio to the appropriate high (DMSO with all reagents) and low (DMSO without BCL6) controls.
For CC1CN(c2ncc(Cl)c(Nc3ccc4c(c3)c3c(c(=O)n4C)OCC(F)(F)[C@H](C4CC4)N3)n2)CC(C)[S+]1[O-] (stereo partly drawn) [Example 12x09, (2S)-10-((5-chloro-2-(2,6-dimethyl-1-oxidothiomorpholino)pyrimidin-4-yl)amino)-2-cyclopropyl-3,3-difluoro-7-methyl-1,2,3,4-tetrahydro-[1,4]oxazepino[2,3-c]quinolin-6(7H)-one], the IC50 was 1.7 nM. CC1CCC(CO)N(c2ncc(Cl)c(Nc3ccc4c(c3)c3c(c(=O)n4C)OCC(F)(F)[C@H](C4CC4)N3)n2)C1 (stereo partly drawn) [Example 12x10, (2S)-10-((5-chloro-2-(2-(hydroxymethyl)-5-methylpiperidin-1-yl)pyrimidin-4-yl)amino)-2-cyclopropyl-3,3-difluoro-7-methyl-1,2,3,4-tetrahydro-[1,4]oxazepino[2,3-c]quinolin-6(7H)-one] showed an IC50 of 11.7 nM. Work on CC1CN(c2ncc(Cl)c(Nc3ccc4c(c3)c3c(c(=O)n4C)OCC(F)(F)[C@H](C4CC4)N3)n2)CC(C)S1(=O)=O (stereo partly drawn) [Example 12x11, (2S)-10-((5-chloro-2-(2,6-dimethyl-1,1-dioxidothiomorpholino)pyrimidin-4-yl)amino)-2-cyclopropyl-3,3-difluoro-7-methyl-1,2,3,4-tetrahydro-[1,4]oxazepino[2,3-c]quinolin-6(7H)-one] yielded an IC50 of 1.62 nM. In the case of CC1CCC(C)N(c2ncc(Cl)c(Nc3ccc4c(c3)c3c(c(=O)n4C)OCC(F)(F)[C@H](C4CC4)N3)n2)C1 (stereo partly drawn) [Example 12x12, (2S)-10-((5-chloro-2-(2,5-dimethylpiperidin-1-yl)pyrimidin-4-yl)amino)-2-cyclopropyl-3,3-difluoro-7-methyl-1,2,3,4-tetrahydro-[1,4]oxazepino[2,3-c]quinolin-6(7H)-one], the IC50 is reported as 56.2 nM. C[C@H]1C[C@H](O)CN(c2ncc(Cl)c(Nc3ccc4c(c3)c3c(c(=O)n4C)OCC(F)(F)[C@H](C4CC4)N3)n2)C1 [Example 12x13, (S)-10-((5-chloro-2-((3S,5S)-3-hydroxy-5-methylpiperidin-1-yl)pyrimidin-4-yl)amino)-2-cyclopropyl-3,3-difluoro-7-methyl-1,2,3,4-tetrahydro-[1,4]oxazepino[2,3-c]quinolin-6(7H)-one] gave an IC50 of 5.62 nM. With Cn1c(=O)c2c(c3cc(Nc4nc(N5CCNCC(O)C5)ncc4Cl)ccc31)N[C@@H](C1CC1)C(F)(F)CO2 (stereo partly drawn) [Example 12x14, (2S)-10-((5-chloro-2-(6-hydroxy-1,4-diazepan-1-yl)pyrimidin-4-yl)amino)-2-cyclopropyl-3,3-difluoro-7-methyl-1,2,3,4-tetrahydro-[1,4]oxazepino[2,3-c]quinolin-6(7H)-one] the IC50 was 3.47 nM. [2H]C([2H])([2H])N1CCN(c2ncc(Cl)c(Nc3ccc4c(c3)c3c(c(=O)n4C)OCC(F)(F)[C@H](C4CC4)N3)n2)CC(O)C1 (stereo partly drawn) [Example 12x15-d3, (2S)-10-((5-chloro-2-(6-hydroxy-4-(methyl-d3)-1,4-diazepan-1-yl)pyrimidin-4-yl)amino)-2-cyclopropyl-3,3-difluoro-7-methyl-1,2,3,4-tetrahydro-[1,4]oxazepino[2,3-c]quinolin-6(7H)-one] gave an IC50 of 1.78 nM. Compound C#CC1CCCN(c2ncc(Cl)c(Nc3ccc4c(c3)c3c(c(=O)n4C)OCC(F)(F)[C@H](C4CC4)N3)n2)C1 (stereo partly drawn) [Example 12x22, (2S)-10-((5-chloro-2-(3-ethynylpiperidin-1-yl)pyrimidin-4-yl)amino)-2-cyclopropyl-3,3-difluoro-7-methyl-1,2,3,4-tetrahydro-[1,4]oxazepino[2,3-c]quinolin-6(7H)-one] has an IC50 of 22.9 nM. Work on Cn1c(=O)c2c(c3cc(Nc4nc(N5CCCC(C#N)C5)ncc4Cl)ccc31)N[C@@H](C1CC1)C(F)(F)CO2 (stereo partly drawn) [Example 12x23, 1-(5-chloro-4-(((S)-2-cyclopropyl-3,3-difluoro-7-methyl-6-oxo-1,2,3,4,6,7-hexahydro-[1,4]oxazepino[2,3-c]quinolin-10-yl)amino)pyrimidin-2-yl)piperidine-3-carbonitrile] yielded an IC50 of 5.13 nM. With Cn1c(=O)c2c(c3cc(Nc4nc(NC5CCC(F)(F)CC5)ncc4Cl)ccc31)N[C@@H](C1CC1)C(F)(F)CO2 [Example 12x24, (S)-10-((5-chloro-2-((4,4-difluorocyclohexyl)amino)pyrimidin-4-yl)amino)-2-cyclopropyl-3,3-difluoro-7-methyl-1,2,3,4-tetrahydro-[1,4]oxazepino[2,3-c]quinolin-6(7H)-one] the IC50 was 14.5 nM. Work on Cn1c(=O)c2c(c3cc(Nc4nc(N5CCCC6CC65)ncc4Cl)ccc31)N[C@@H](C1CC1)C(F)(F)CO2 (stereo partly drawn) [Example 12x25, (2S)-10-((2-(2-azabicyclo[4.1.0]heptan-2-yl)-5-chloropyrimidin-4-yl)amino)-2-cyclopropyl-3,3-difluoro-7-methyl-1,2,3,4-tetrahydro-[1,4]oxazepino[2,3-c]quinolin-6(7H)-one] yielded an IC50 of 15.8 nM. Compound Cn1c(=O)c2c(c3cc(Nc4nc(N5CCNC(C(F)F)C5)ncc4Cl)ccc31)N[C@@H](C1CC1)C(F)(F)CO2 (stereo partly drawn) [Example 12x26, (2S)-10-((5-chloro-2-(3-(difluoromethyl)piperazin-1-yl)pyrimidin-4-yl)amino)-2-cyclopropyl-3,3-difluoro-7-methyl-1,2,3,4-tetrahydro-[1,4]oxazepino[2,3-c]quinolin-6(7H)-one] has an IC50 of 1.91 nM. In the case of C[C@H]1C[C@@H](OCCN(C)C)CN(c2ncc(Cl)c(Nc3ccc4c(c3)c3c(c(=O)n4C)OCC(F)(F)[C@H](C4CC4)N3)n2)C1 [Example 12x28, (S)-10-((5-chloro-2-((3R,5S)-3-(2-(dimethylamino)ethoxy)-5-methylpiperidin-1-yl)pyrimidin-4-yl)amino)-2-cyclopropyl-3,3-difluoro-7-methyl-1,2,3,4-tetrahydro-[1,4]oxazepino[2,3-c]quinolin-6(7H)-one], the IC50 is reported as 3.16 nM. With CC1CC(C(=O)N2CCC2)CN(c2ncc(Cl)c(Nc3ccc4c(c3)c3c(c(=O)n4C)OCC(F)(F)[C@H](C4CC4)N3)n2)C1 (stereo partly drawn) [Example 12x30, (2S)-10-((2-(3-(azetidine-1-carbonyl)-5-methylpiperidin-1-yl)-5-chloropyrimidin-4-yl)amino)-2-cyclopropyl-3,3-difluoro-7-methyl-1,2,3,4-tetrahydro-[1,4]oxazepino[2,3-c]quinolin-6(7H)-one] the IC50 was 2 nM. CC1CC(C(=O)N2CC(F)(F)C2)CN(c2ncc(Cl)c(Nc3ccc4c(c3)c3c(c(=O)n4C)OCC(F)(F)[C@H](C4CC4)N3)n2)C1 (stereo partly drawn) [Example 12x31, (2S)-10-((5-chloro-2-(3-(3,3-difluoroazetidine-1-carbonyl)-5-methylpiperidin-1-yl)pyrimidin-4-yl)amino)-2-cyclopropyl-3,3-difluoro-7-methyl-1,2,3,4-tetrahydro-[1,4]oxazepino[2,3-c]quinolin-6(7H)-one] was tested, and the IC50 was 3.8 nM. Compound Cn1c(=O)c2c(c3cc(Nc4nc(N5CC(CO)C5)ncc4Cl)ccc31)N[C@@H](C1CC1)C(F)(F)CO2 [Example 12x32, (S)-10-((5-chloro-2-(3-(hydroxymethyl)azetidin-1-yl)pyrimidin-4-yl)amino)-2-cyclopropyl-3,3-difluoro-7-methyl-1,2,3,4-tetrahydro-[1,4]oxazepino[2,3-c]quinolin-6(7H)-one] has an IC50 of 3.72 nM. Cn1c(=O)c2c(c3cc(Nc4nc(N5CC[C@H]5CO)ncc4Cl)ccc31)N[C@@H](C1CC1)C(F)(F)CO2 [Example 12x33a, (S)-10-((5-chloro-2-((S)-2-(hydroxymethyl)azetidin-1-yl)pyrimidin-4-yl)amino)-2-cyclopropyl-3,3-difluoro-7-methyl-1,2,3,4-tetrahydro-[1,4]oxazepino[2,3-c]quinolin-6(7H)-one] gave an IC50 of 2.14 nM. Compound Cn1c(=O)c2c(c3cc(Nc4nc(N5CC[C@@H]5CO)ncc4Cl)ccc31)N[C@@H](C1CC1)C(F)(F)CO2 [Example 12x33b, (S)-10-((5-chloro-2-((R)-2-(hydroxymethyl)azetidin-1-yl)pyrimidin-4-yl)amino)-2-cyclopropyl-3,3-difluoro-7-methyl-1,2,3,4-tetrahydro-[1,4]oxazepino[2,3-c]quinolin-6(7H)-one] has an IC50 of 7.76 nM. Cn1c(=O)c2c(c3cc(Nc4nc(N5CC(CF)C5)ncc4Cl)ccc31)N[C@@H](C1CC1)C(F)(F)CO2 [Example 12x35, (S)-10-((5-chloro-2-(3-(fluoromethyl)azetidin-1-yl)pyrimidin-4-yl)amino)-2-cyclopropyl-3,3-difluoro-7-methyl-1,2,3,4-tetrahydro-[1,4]oxazepino[2,3-c]quinolin-6(7H)-one] gave an IC50 of 5.37 nM. In the case of Cn1c(=O)c2c(c3cc(Nc4nc(N5CCC(C#N)CC5)ncc4Cl)ccc31)N[C@@H](C1CC1)C(F)(F)CO2 [Example 12x38, (S)-1-(5-chloro-4-((2-cyclopropyl-3,3-difluoro-7-methyl-6-oxo-1,2,3,4,6,7-hexahydro-[1,4]oxazepino[2,3-c]quinolin-10-yl)amino)pyrimidin-2-yl)piperidine-4-carbonitrile], the IC50 is reported as 3.72 nM. Compound CN(C)C(=O)C1CC(F)CN(c2ncc(Cl)c(Nc3ccc4c(c3)c3c(c(=O)n4C)OCC(F)(F)[C@H](C4CC4)N3)n2)C1 (stereo partly drawn) [Example 12x39, 1-(5-chloro-4-(((S)-2-cyclopropyl-3,3-difluoro-7-methyl-6-oxo-1,2,3,4,6,7-hexahydro-[1,4]oxazepino[2,3-c]quinolin-10-yl)amino)pyrimidin-2-yl)-5-fluoro-N,N-dimethylpiperidine-3-carboxamide] has an IC50 of 2.51 nM. Work on Cn1c(=O)c2c(c3cc(Nc4nc(N5CCCC(F)C5)ncc4Cl)ccc31)N[C@@H](C1CC1)C(F)(F)CO2 (stereo partly drawn) [Example 12x40, (2S)-10-((5-chloro-2-(3-fluoropiperidin-1-yl)pyrimidin-4-yl)amino)-2-cyclopropyl-3,3-difluoro-7-methyl-1,2,3,4-tetrahydro-[1,4]oxazepino[2,3-c]quinolin-6(7H)-one] yielded an IC50 of 10.7 nM.
